Reference: ChEMBL document CHEMBL3997794, “Design and synthesis of benzodiazepine analogs as isoform-selective human lysine deacetylase inhibitors” (Eur J Med Chem, 2017)

What was measured:
[1] = target: T1, Protein deacetylase HDAC6 (Homo sapiens) (UniProt Q9UBN7); conditions: at 30 µM
T1 sequence (whole entry): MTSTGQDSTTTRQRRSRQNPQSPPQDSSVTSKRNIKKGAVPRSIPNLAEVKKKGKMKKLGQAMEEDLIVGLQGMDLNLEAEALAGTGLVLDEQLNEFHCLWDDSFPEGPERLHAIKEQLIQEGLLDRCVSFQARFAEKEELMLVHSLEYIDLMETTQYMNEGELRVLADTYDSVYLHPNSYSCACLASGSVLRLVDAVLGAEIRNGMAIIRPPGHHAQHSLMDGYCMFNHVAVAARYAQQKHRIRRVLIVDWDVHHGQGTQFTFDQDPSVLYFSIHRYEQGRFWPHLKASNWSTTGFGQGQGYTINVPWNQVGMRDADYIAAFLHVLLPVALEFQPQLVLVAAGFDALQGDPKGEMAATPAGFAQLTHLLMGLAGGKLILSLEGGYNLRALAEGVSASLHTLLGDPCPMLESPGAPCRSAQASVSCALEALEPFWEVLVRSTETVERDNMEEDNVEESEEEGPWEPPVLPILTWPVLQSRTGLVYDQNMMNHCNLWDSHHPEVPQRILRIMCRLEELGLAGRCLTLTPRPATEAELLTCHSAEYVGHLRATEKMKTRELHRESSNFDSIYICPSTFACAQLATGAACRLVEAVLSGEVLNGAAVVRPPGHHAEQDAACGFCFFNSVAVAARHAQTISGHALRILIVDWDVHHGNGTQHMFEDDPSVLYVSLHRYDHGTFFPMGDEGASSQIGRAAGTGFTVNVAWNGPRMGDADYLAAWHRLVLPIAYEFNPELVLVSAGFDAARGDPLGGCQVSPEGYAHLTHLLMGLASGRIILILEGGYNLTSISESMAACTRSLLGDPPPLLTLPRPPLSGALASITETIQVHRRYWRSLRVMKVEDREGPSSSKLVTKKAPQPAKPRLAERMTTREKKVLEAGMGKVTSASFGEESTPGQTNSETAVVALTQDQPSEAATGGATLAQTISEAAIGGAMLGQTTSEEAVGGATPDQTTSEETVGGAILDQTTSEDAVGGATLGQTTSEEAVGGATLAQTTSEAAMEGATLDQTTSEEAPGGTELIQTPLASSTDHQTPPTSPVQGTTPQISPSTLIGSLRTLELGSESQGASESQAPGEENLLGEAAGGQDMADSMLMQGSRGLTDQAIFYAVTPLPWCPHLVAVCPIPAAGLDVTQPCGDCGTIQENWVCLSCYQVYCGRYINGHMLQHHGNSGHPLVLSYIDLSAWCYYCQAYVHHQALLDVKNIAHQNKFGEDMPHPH
Description: Inhibition of human KDAC6 at 30 uM using FITC-labeled histone H4 acetylated peptide as substrate after 60 mins by fluorescence assay relative to control

Histone deacetylase 1 [2] = target: T2, Histone deacetylase 1 (Homo sapiens, UniProt Q13547); assay: Inhibition of human KDAC1 using substrate A after 60 mins by fluorescence assay
Histone deacetylase 3 [3] = target: T3, Histone deacetylase 3 (Homo sapiens, UniProt O15379); assay: Inhibition of human KDAC3 at 30 uM using FITC-labeled p53 acetylated peptide as substrate after 60 mins by fluorescence assay relative to control
Histone deacetylase 8 = target: T4, Histone deacetylase 8 (Homo sapiens, UniProt Q9BY41); assay: Inhibition of human KDAC8 after 60 mins by fluorescence assay
T4 sequence (Q9BY41 whole entry): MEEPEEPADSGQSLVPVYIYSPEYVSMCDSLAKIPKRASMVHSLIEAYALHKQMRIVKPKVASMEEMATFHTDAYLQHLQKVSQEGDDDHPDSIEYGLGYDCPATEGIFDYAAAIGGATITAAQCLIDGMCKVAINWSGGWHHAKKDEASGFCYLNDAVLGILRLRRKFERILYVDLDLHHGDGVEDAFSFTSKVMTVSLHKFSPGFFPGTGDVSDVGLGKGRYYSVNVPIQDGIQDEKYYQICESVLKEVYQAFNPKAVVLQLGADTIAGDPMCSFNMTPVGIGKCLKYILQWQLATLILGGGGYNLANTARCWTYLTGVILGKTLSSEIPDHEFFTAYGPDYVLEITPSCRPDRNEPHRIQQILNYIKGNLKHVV

[4] = target: T5, Histone deacetylase 8 (Homo sapiens) (UniProt Q9BY41); assay: Inhibition of human KDAC8 at 30 uM after 60 mins by fluorescence assay relative to control
T5 sequence (whole entry): T4 sequence (Q9BY41 whole entry)

Histone deacetylase 1 [5] = target: T2, Histone deacetylase 1; assay: Inhibition of human KDAC1 at 30 uM using substrate A after 60 mins by fluorescence assay relative to control
Histone deacetylase 3 [6] = target: T3, Histone deacetylase 3; assay: Inhibition of human KDAC3 using FITC-labeled p53 acetylated peptide as substrate after 60 mins by fluorescence assay
[7] = target: T6, Protein deacetylase HDAC6 (Homo sapiens, UniProt Q9UBN7); assay: Inhibition of human KDAC6 using FITC-labeled histone H4 acetylated peptide as substrate after 60 mins by fluorescence assay
T6 sequence (Q9UBN7 whole entry): T1 sequence (whole entry)

T3 sequence (O15379 whole entry): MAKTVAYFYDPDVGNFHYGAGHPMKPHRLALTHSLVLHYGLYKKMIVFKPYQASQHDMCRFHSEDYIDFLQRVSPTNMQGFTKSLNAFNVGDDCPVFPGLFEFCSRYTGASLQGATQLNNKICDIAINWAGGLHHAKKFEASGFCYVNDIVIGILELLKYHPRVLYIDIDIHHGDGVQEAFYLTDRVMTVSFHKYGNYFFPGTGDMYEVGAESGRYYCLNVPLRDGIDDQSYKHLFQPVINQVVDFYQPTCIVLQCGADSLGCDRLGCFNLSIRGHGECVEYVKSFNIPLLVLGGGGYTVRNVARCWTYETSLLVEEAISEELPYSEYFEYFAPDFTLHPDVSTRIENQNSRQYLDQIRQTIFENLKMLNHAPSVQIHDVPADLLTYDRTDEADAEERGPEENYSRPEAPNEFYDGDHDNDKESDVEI
T2 sequence (Q13547 whole entry): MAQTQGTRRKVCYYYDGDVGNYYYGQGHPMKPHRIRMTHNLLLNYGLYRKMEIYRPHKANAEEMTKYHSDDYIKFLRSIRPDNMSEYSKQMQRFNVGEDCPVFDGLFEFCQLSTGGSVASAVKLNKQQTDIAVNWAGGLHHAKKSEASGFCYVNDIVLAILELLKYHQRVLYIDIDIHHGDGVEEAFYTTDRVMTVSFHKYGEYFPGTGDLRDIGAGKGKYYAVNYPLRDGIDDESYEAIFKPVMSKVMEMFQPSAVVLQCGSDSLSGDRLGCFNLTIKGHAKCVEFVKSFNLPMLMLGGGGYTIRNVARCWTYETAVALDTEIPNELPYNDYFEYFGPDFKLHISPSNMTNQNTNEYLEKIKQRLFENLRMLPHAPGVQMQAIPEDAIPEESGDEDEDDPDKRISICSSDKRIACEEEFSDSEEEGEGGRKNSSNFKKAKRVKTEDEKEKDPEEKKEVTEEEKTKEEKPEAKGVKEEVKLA

Row | SMILES | inhibition [1] [%] | IC50 (Histone deacetylase 1 [2]) [µM] | inhibition (Histone deacetylase 3 [3]) [%] | IC50 (Histone deacetylase 8) [µM] | inhibition [4] [%] | inhibition (Histone deacetylase 1 [5]) [%] | IC50 (Histone deacetylase 3 [6]) [µM] | IC50 [7] [µM]
1 | NCCCC[C@@H]1N=C(c2ccccc2)c2ccccc2N(CCCCC(=O)NO)C1=O | 73.4 | 6.54 | 99.1 | > 30 | 7.7 | 79.5 | 0.95 | 12.1
2 | CC(C)(C)OC(=O)CC[C@H]1N=C(c2ccccc2)c2ccccc2NC1=O | 4.3 | > 30 | 3.85 | > 30 | 4.35 | 10.5 | > 30 | > 30
3 | CC(C)(C)OC(=O)C[C@@H]1N=C(c2ccccc2)c2ccccc2NC1=O | 0 | > 30 | 3.95 | > 30 | 5.34 | 9.6 | > 30 | > 30
4 | C[C@H](OCc1ccccc1)[C@@H]1N=C(c2ccccc2)c2ccccc2NC1=O | 3.08 | > 30 | 2.49 | > 30 | 9.14 | 1.5 | > 30 | > 30
5 | CC(C)C[C@@H]1N=C(c2ccccc2)c2ccccc2N(CCCCC(=O)O)C1=O | 0 | > 30 | 0 | > 30 | 7 | 3.1 | > 30 | > 30
6 | CC[C@H](C)[C@@H]1N=C(c2ccccc2)c2ccccc2NC1=O | 1.82 | > 30 | 0.56 | > 30 | 0 | 6.77 | > 30 | > 30
7 | O=C(CCCNC(=O)CC[C@@H]1N=C(c2ccccc2)c2ccccc2NC1=O)NO | 83.5 | 22.9 | 87.2 | > 30 | 33.6 | 55.8 | 5.17 | 7.16
